Assay results published in PMC7486383, “Protrudin and PDZD8 contribute to neuronal integrity by promoting lipid extraction required for endosome maturation” (Nature Communications, 2020).
Where a name gives a salt, the structure may show the parent alone.

Tests used:
GST-PDZD8(ΔTM) = biological target: T1, GST-PDZD8(ΔTM) (Mus musculus, UniProt B9EJ80); assay: liposome-FRET lipid extraction assay; format: binding; conditions: labelled compound; donor liposomes PC/PE/rhodamine-PE; 25 °C
T1 sequence (B9EJ80 25-1147 limits assumed): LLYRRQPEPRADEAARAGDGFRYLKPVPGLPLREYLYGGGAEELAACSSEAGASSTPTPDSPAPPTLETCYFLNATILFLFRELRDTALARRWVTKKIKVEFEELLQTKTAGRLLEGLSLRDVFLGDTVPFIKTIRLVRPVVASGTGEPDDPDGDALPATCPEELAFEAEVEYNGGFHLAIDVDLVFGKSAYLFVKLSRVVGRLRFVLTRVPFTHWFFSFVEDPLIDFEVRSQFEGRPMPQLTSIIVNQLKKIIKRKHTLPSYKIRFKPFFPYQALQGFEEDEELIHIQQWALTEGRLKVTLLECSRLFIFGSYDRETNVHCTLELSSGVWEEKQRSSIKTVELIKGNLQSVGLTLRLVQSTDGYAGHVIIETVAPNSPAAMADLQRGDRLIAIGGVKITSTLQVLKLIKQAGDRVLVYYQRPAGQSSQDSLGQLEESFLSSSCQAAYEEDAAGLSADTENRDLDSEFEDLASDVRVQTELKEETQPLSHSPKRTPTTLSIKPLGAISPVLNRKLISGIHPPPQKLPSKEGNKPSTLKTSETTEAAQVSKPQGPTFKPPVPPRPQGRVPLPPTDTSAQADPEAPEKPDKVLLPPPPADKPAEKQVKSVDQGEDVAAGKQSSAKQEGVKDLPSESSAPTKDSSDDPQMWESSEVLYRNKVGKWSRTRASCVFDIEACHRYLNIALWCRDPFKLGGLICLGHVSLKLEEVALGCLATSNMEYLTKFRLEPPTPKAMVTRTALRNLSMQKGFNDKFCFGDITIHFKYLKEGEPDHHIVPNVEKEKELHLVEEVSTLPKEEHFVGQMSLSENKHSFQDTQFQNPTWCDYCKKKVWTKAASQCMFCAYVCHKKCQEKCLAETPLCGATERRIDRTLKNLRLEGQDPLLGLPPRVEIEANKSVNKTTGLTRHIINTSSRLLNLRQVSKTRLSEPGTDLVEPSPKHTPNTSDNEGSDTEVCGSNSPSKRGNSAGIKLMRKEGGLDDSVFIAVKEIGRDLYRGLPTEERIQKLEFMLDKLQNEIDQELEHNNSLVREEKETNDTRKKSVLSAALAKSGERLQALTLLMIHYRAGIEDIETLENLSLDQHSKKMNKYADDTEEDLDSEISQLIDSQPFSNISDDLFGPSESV

PDZD8(SMP-PDZ) = biological target: T2, PDZD8(SMP-PDZ) (Mus musculus, UniProt B9EJ80); assay: liposome-FRET lipid extraction assay; format: binding; conditions: labelled compound; donor liposomes PC/PE/rhodamine-PE; 25 °C
T2 sequence (B9EJ80 87-448 limits assumed): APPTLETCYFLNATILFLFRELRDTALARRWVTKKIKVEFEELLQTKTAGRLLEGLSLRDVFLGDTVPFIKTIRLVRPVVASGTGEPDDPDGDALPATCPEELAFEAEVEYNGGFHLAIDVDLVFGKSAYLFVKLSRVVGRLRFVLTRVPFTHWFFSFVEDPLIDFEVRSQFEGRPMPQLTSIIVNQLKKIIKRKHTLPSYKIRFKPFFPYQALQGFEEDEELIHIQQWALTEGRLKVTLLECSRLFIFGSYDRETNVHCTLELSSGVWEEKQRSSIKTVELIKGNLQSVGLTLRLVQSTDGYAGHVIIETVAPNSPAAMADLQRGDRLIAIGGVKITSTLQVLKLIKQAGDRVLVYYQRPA

| Compound | initial velocity of lipid extraction (GST-PDZD8(ΔTM)) | initial velocity of lipid extraction (PDZD8(SMP-PDZ)) |
| --- | --- | --- |
| CCCCCCCCCCCCC/C=C/[C@@H](O)[C@H](CO)NC(=O)CCCCCNc1ccc([N+](=O)[O-])c2nonc12 [C6-NBD-ceramide, N-{6-[(7-nitro-2-1,3-benzoxadiazol-4-yl)amino]hexanoyl}-D-erythro-sphingosine] | PDZD8(ΔTM) also showed high extraction activity for ceramide | – |
| CCCCCCCCCCCCCCCC(=O)OC[C@H](COP(=O)(O)OC[C@H](N)C(=O)O)OC(=O)CCCCCCCCCCCNc1ccc([N+](=O)[O-])c2nonc12 [NBD-PS, 1-palmitoyl-2-{12-[(7-nitro-2-1,3-benzoxadiazol-4-yl)amino]dodecanoyl}-sn-glycero-3-phosphoserine (ammonium salt)] | with the initial velocity of lipid extraction being greatest for PS | The activity of PDZD8(SMP-PDZ) was also about half that of PDZD8(ΔTM) |
